Test results published in patent US8809555B2, “Anti-leishmanial compound and anti-leishmanial drug” (Aoyama Gakuin Educational Foundation, priority 2010, dated 2014).

What was measured:
[1] = system: Leishmania major promastigotes (MHOM/UZ/91/PM2); assay: Analysis of in vitro anti-leishmanial activity (growth inhibition of L. major/egfp promastigotes, fluorescence); assay type: cell-based; conditions: 25° C., 72 h, inhibition with Amphotericin B (positive control) defined as 100%, FIG. 9
Text: The compounds represented by formulas (1) to (6), which had been isolated by the procedure described above, were subjected to an analysis of the physiological activity under the conditions that are described below. Leishmania major promastigotes (MHOM/UZ/91/PM2) were selected as the Leishmania protozoa, and a L. major/egfp promastigotes in which a fluorescent protein egfp gene had been introduced was used. The compounds mentioned above were used as samples. Thus, the growth inhibition rate was determined under the following conditions.
Promastigotes of transgenic Leishmania major (MHOM/UZ/91/PM2) expressing enhanced green fluorescent protein (L. major/egfp) were maintained at 25° C. in 199 medium (NISSUI Pharmaceutical, Tokyo, Japan) containing 10% fetal bovine serum, 25 mM Hepes buffer (MP Biomedicals, LLC) and 10 μg/mL […] (SIGMA-ALDRICH, inc., USA). […] Thereafter, fluorescence signals of L. major/egfp promastigotes were measured with a fluorescence microplate reader (Fluoroscan Ascent FL, Dainippon. Pharmaceutical Co., Osaka, Japan) with excitation at 485 nm and emission at 538 nm. […]

L. major PM2 = assay: Analysis of in vivo anti-leishmanial activity (leishmaniasis mouse model); conditions: mice infected with 1×10^7 promastigotes of L. major PM2; 200 μg by peritoneal injection once a day for three weeks; size of ulcer, antibody titer in blood, protozoan DNA in blood (FIG. 10-12)
Protocol: In order to evaluate the in vivo anti-leishmanial activity of the compound represented by formula (3), which had been isolated by the procedure described above, a leishmaniasis mouse model was used to investigate the therapeutic effect. Six-week old mice ([…], male, 6 animals per group) were infected with 1×10^7 cells of cultured promastigotes of L. major PM2. From the day after the infection day, the compound represented by the formula (3) was administered to each specimen in an amount of 200 μg by peritoneal injection. The administration schedule was such that the compound was continuously administered once a day for three weeks. Further, as control, the same analysis was carried out also for a treatment group to which Amphotericin B was administered, and for a treatment group to which none was administered.

SMILES: CC(C)=CCC/C(C)=C/CC/C(C)=C/CC/C(C)=C/CC1(CC(=O)O)CC(=O)C=CC1=O (centres unmarked) [formula (3)]
- growth inhibition rate [1]: almost equal to the growth inhibition rate of Amphotericin B
- in vivo anti-leishmanial activity (L. major PM2): equal to that of Amphotericin B
